Consider 48 compounds from patent US20050197364A1, “Amide compounds as ion channel ligands and uses thereof” (priority 2003, published 2005).

One test relates to VR1 receptor. The test can be described thus: High throughput calcium imaging assay (Fura2, Flex Station) of VR1 antagonists, pH 5.1 stimulus. Conditions: 1 uM compound; inhibition of calcium ion influx induced by capsaicin stimulation. The class given is cell-based.
As for `O=C(Nc1ccc(F)cc1[N+](=O)[O-])c1ccc(-c2ncccc2Cl)c(F)c1` [Compound 132], the “% Inhibition @ 1 uM” value was “+ + + + (compound exhibited 75% or greater inhibition of calcium ion influx induced by capsaicin stimulation)”. For the compound `COc1cc(C(=O)Nc2cccc(OC(F)(F)F)c2)ccc1-c1ncccc1Cl` [Compound 252], the “% Inhibition @ 1 uM” value is listed as “+ (“+” compound exhibited 0-25% inhibition of calcium ion influx induced by capsaicin stimulation.)”. Same read-out and setting: with `COc1cc(C(=O)Nc2cc(C)nc(C)n2)ccc1-c1ncccc1Cl` [Compound 232] the entry was “+ (“+” compound exhibited 0-25% inhibition of calcium ion influx induced by capsaicin stimulation.)”. In the case of `COc1cc(C(=O)Nc2cc(C)ccn2)ccc1-c1ncccc1Cl` [Compound 223], the “% Inhibition @ 1 uM” value was “+ + + + (“+ + + +” compound exhibited 75% or greater inhibition of calcium ion influx induced by capsaicin stimulation.)”.

For the compound `COc1cc(C(=O)Nc2ccc(N3CCNCC3)c(Cl)c2)ccc1-c1ncccc1Cl` [Compound 259], the “% Inhibition @ 1 uM” value is “+ (“+” compound exhibited 0-25% inhibition of calcium ion influx induced by capsaicin stimulation.)”.

On to `COc1ccccc1NC(=O)c1ccc(-c2ncccc2Cl)c(OC)c1` [Compound 194], for which the “% Inhibition @ 1 uM” value is listed as “+ + (compound exhibited 25-50% inhibition of calcium ion influx induced by capsaicin stimulation)”. Take `COc1ccc(NC(=O)c2ccc(-c3ncccc3Cl)cc2)cc1Cl` [Compound 17]: the “% Inhibition @ 1 uM” value is recorded as “+ (compound exhibited 0-25% inhibition of calcium ion influx induced by capsaicin stimulation)”.

For the compound `COc1cc(C(=O)Nc2ccc(C(F)(F)F)cc2)ccc1-c1ncccc1Cl` [Compound 213], the “% Inhibition @ 1 uM” value is “+ + (“+ +” compound exhibited 25-50% inhibition of calcium ion influx induced by capsaicin stimulation.)”. Take `COc1ccc(NC(=O)c2ccc(-c3ncccc3Cl)cc2)cn1` [Compound 32]: the “% Inhibition @ 1 uM” value is “+ (compound exhibited 0-25% inhibition of calcium ion influx induced by capsaicin stimulation)”.

Turning to `COc1cccc(NC(=O)c2ccc(-c3ncccc3Cl)cc2F)c1` [Compound 74], the “% Inhibition @ 1 uM” value is “+ (compound exhibited 0-25% inhibition of calcium ion influx induced by capsaicin stimulation)”. Regarding `O=C(Nc1ccc(C(F)(F)F)cn1)c1ccc(-c2ncccc2Cl)c(F)c1` [Compound 149], the “% Inhibition @ 1 uM” value is “+ + (compound exhibited 25-50% inhibition of calcium ion influx induced by capsaicin stimulation)”. As for `O=C(Nc1cccc(Cl)c1)c1ccc(-c2ncccc2Cl)c(F)c1` [Compound 116], the “% Inhibition @ 1 uM” value is on record as “+ (compound exhibited 0-25% inhibition of calcium ion influx induced by capsaicin stimulation)”.

`CC(C)(C)NC(=O)c1ccc(-c2ncccc2Cl)c(F)c1` [Compound 110]: the “% Inhibition @ 1 uM” value is “+ (compound exhibited 0-25% inhibition of calcium ion influx induced by capsaicin stimulation)”. Turning to `O=C(Nc1ccnc(Cl)c1)c1ccc(-c2ncccc2Cl)cc1` [Compound 33], the “% Inhibition @ 1 uM” value is listed as “+ + + + (compound exhibited 75% or greater inhibition of calcium ion influx induced by capsaicin stimulation)”. Still for that read-out and setting: to `O=C(Nc1ccncc1)c1ccc(-c2ncccc2Cl)cn1` [Compound 313] belongs “+ + + (“+ + +” compound exhibited 50-75% inhibition of calcium ion influx induced by capsaicin stimulation.)”; to `COc1cc(C(=O)Nc2ccccc2C#N)ccc1-c1ncccc1Cl` [Compound 192], “+ (compound exhibited 0-25% inhibition of calcium ion influx induced by capsaicin stimulation)”. The same measure, in the same setting: to `O=C(Nc1ccc(OC(F)(F)F)cc1)c1ccc(-c2ncccc2Cl)cn1` [Compound 343] belongs “+ (“+” compound exhibited 0-25% inhibition of calcium ion influx induced by capsaicin stimulation.)”; to `O=C(Nc1cccnc1Cl)c1ccc(-c2ncccc2Cl)cc1F` [Compound 101], “+ (compound exhibited 0-25% inhibition of calcium ion influx induced by capsaicin stimulation)”. Regarding `O=C(Nc1cccc(Cl)c1)c1ccc(-c2ncccc2Cl)cc1F` [Compound 71], the “% Inhibition @ 1 uM” value was “+ (compound exhibited 0-25% inhibition of calcium ion influx induced by capsaicin stimulation)”. Same read-out and setting: to `Cc1cccnc1NC(=O)c1ccc(-c2ncccc2Cl)cc1F` [Compound 95] belongs “+ (compound exhibited 0-25% inhibition of calcium ion influx induced by capsaicin stimulation)”; to `O=C(Nc1ccc2cn[nH]c2c1)c1ccc(-c2ncccc2Cl)c(F)c1` [Compound 172], “+ + + (compound exhibited 50-75% inhibition of calcium ion influx induced by capsaicin stimulation)”; to `O=C(Nc1ccc2c(c1)OCCO2)c1ccc(-c2ncccc2Cl)cc1` [Compound 1], “+ + (compound exhibited 25-50% inhibition of calcium ion influx induced by capsaicin stimulation)”. The same measure, in the same setting: with `O=C(Nc1ccc(OCc2ccccc2)cc1)c1ccc(-c2ncccc2Cl)cn1` [Compound 332] the entry was “+ (“+” compound exhibited 0-25% inhibition of calcium ion influx induced by capsaicin stimulation.)”. In the case of `COc1cc(C(=O)Nc2cccc(OC(C)C)c2)ccc1-c1ncccc1Cl` [Compound 253], the “% Inhibition @ 1 uM” value is on record as “+ (“+” compound exhibited 0-25% inhibition of calcium ion influx induced by capsaicin stimulation.)”.

Consider `COc1cc(C(=O)Nc2ccncc2)ccc1-c1ncccc1Cl` [Compound 218], for which the “% Inhibition @ 1 uM” value is given as “+ + + + (“+ + + +” compound exhibited 75% or greater inhibition of calcium ion influx induced by capsaicin stimulation.)”.

As for `Cc1cc(C)nc(NC(=O)c2ccc(-c3ncccc3Cl)c(F)c2)c1` [Compound 139], the “% Inhibition @ 1 uM” value was “+ (compound exhibited 0-25% inhibition of calcium ion influx induced by capsaicin stimulation)”. The same measure, in the same setting: to `COc1cccc(NC(=O)c2ccc(-c3ncccc3Cl)c(F)c2)c1` [Compound 119] belongs “+ (compound exhibited 0-25% inhibition of calcium ion influx induced by capsaicin stimulation)”; to `COc1ccc(NC(=O)c2ccc(-c3ncccc3Cl)cc2)cc1` [Compound 5], “+ + (compound exhibited 25-50% inhibition of calcium ion influx induced by capsaicin stimulation)”. On the same count and under the same terms, with `COc1ccc(NC(=O)c2ccc(-c3ncccc3Cl)cc2F)cn1` [Compound 103] the entry was “+ (compound exhibited 0-25% inhibition of calcium ion influx induced by capsaicin stimulation)”; with `CCCOc1ccc(NC(=O)c2ccc(-c3ncccc3Cl)c(F)c2)cc1` [Compound 173], “+ + (compound exhibited 25-50% inhibition of calcium ion influx induced by capsaicin stimulation)”; with `COc1ccc(NC(=O)c2ccc(-c3ncccc3Cl)c(OC)c2)cc1` [Compound 190], “+ (compound exhibited 0-25% inhibition of calcium ion influx induced by capsaicin stimulation)”. On the same count and under the same terms, to `CCOc1ccc(NC(=O)c2ccc(-c3ncccc3Cl)c(OC)c2)cc1` [Compound 256] belongs “+ (“+” compound exhibited 0-25% inhibition of calcium ion influx induced by capsaicin stimulation.)”.

On to `CCCCc1ccc(NC(=O)c2ccc(-c3ncccc3Cl)cn2)cc1` [Compound 302], for which the “% Inhibition @ 1 uM” value is recorded as “+ + + (“+ + +” compound exhibited 50-75% inhibition of calcium ion influx induced by capsaicin stimulation.)”.

Regarding `O=C(Nc1ccc2ccccc2c1)c1ccc(-c2ncccc2Cl)cn1` [Compound 331], the “% Inhibition @ 1 uM” value was “+ + (“+ +” compound exhibited 25-50% inhibition of calcium ion influx induced by capsaicin stimulation.)”.

With `O=C(Nc1nccs1)c1ccc(-c2ncccc2Cl)cc1` [Compound 38], the “% Inhibition @ 1 uM” value is recorded as “+ (compound exhibited 0-25% inhibition of calcium ion influx induced by capsaicin stimulation)”. Same read-out and setting: with `O=C(Nc1ccccc1CCO)c1ccc(-c2ncccc2Cl)cc1` [Compound 23] the entry was “+ + + (compound exhibited 50-75% inhibition of calcium ion influx induced by capsaicin stimulation)”; with `O=C(Nc1cccc(OC(F)(F)F)c1)c1ccc(-c2ncccc2Cl)cn1` [Compound 344], “+ + (“+ +” compound exhibited 25-50% inhibition of calcium ion influx induced by capsaicin stimulation.)”; with `N#Cc1cccc(NC(=O)c2ccc(-c3ncccc3Cl)cc2F)c1` [Compound 84], “+ + + + (compound exhibited 75% or greater inhibition of calcium ion influx induced by capsaicin stimulation)”. Regarding `CCn1c2ccccc2c2cc(NC(=O)c3ccc(-c4ncccc4Cl)cn3)ccc21` [Compound 328], the “% Inhibition @ 1 uM” value is “+ + + + (“+ + + +” compound exhibited 75% or greater inhibition of calcium ion influx induced by capsaicin stimulation.)”. For `Cc1ccc(NC(=O)c2ccc(-c3ncccc3Cl)c(F)c2)c(C)c1` [Compound 128], the “% Inhibition @ 1 uM” value is on record as “+ + + + (compound exhibited 75% or greater inhibition of calcium ion influx induced by capsaicin stimulation)”. Still for that read-out and setting: to `O=C(Nc1ccc(C2CCCCC2)cc1)c1ccc(-c2ncccc2Cl)cc1` [Compound 27] belongs “+ + + + (compound exhibited 75% or greater inhibition of calcium ion influx induced by capsaicin stimulation)”. As for `COc1cc(C(=O)Nc2ccnc(Cl)c2)ccc1-c1ncccc1Cl` [Compound 231], the “% Inhibition @ 1 uM” value is “+ (“+” compound exhibited 0-25% inhibition of calcium ion influx induced by capsaicin stimulation.)”. The same measure, in the same setting: with `O=C(Nc1ccc([N+](=O)[O-])cc1)c1ccc(-c2ncccc2Cl)cc1` [Compound 56] the entry was “+ + + + (compound exhibited 75% or greater inhibition of calcium ion influx induced by capsaicin stimulation)”; with `COc1cc(C(=O)Nc2ccncn2)ccc1-c1ncccc1Cl` [Compound 225], “+ + (“+ +” compound exhibited 25-50% inhibition of calcium ion influx induced by capsaicin stimulation.)”; with `O=C(Nc1cccnc1)c1ccc(-c2ncccc2Cl)cc1F` [Compound 63], “+ (compound exhibited 0-25% inhibition of calcium ion influx induced by capsaicin stimulation)”. Still for that read-out and setting: with `CCOc1ccc(NC(=O)c2ccc(-c3ncccc3Cl)cc2)cc1` [Compound 281] the entry was “+ (“+” compound exhibited 0-25% inhibition of calcium ion influx induced by capsaicin stimulation.)”; with `COc1cc(C(=O)Nc2ccc(F)c(F)c2)ccc1-c1ncccc1Cl` [Compound 254], “+ + + (“+ + +” compound exhibited 50-75% inhibition of calcium ion influx induced by capsaicin stimulation.)”.

Still in this test, the particulars now being: 1 uM compound; inhibition of calcium ion influx induced by capsaicin stimulation; 1 µM.
`O=C(Nc1ccc2ccccc2c1)c1ccc(-c2ncccc2Cl)cc1` [Compound 54]: the “% Inhibition @ 1 uM” value is “+ (compound exhibited 0-25% inhibition of calcium ion influx induced by capsaicin stimulation)”.
